ChEMBL document CHEMBL1153107, “A highly atom economic, chemo-, regio- and stereoselective synthesis and evaluation of spiro-pyrrolothiazoles as antitubercular agents” (2010)
Values after ≈ are worked out from the molar mass of the structure shown.

What follows are compounds tested on Mycobacterium tuberculosis (assay: Antitubercular activity against multidrug-resistant Mycobacterium tuberculosis).
Assay type: functional

SMILES	MIC [µM]
CN1C/C(=C\c2ccc(Cl)cc2Cl)C(=O)[C@]2(C1)[C@H](c1ccc(Cl)cc1Cl)[C@@H]1CSCN1[C@@]21C(=O)Nc2ccc([N+](=O)[O-])cc21	0.6 (≈ 0.414 µg/mL)
NC(=O)c1cnccn1 [PYRAZINAMIDE]	406 (≈ 50 µg/mL)
CN1C/C(=C\c2ccccc2Cl)C(=O)[C@]2(C1)[C@H](c1ccccc1Cl)[C@@H]1CSCN1[C@@]21C(=O)Nc2ccc([N+](=O)[O-])cc21	2.6 (≈ 1.62 µg/mL)
CN1C/C(=C\c2ccc(Br)cc2)C(=O)[C@]2(C1)[C@H](c1ccc(Br)cc1)[C@@H]1CSCN1[C@@]21C(=O)Nc2ccc([N+](=O)[O-])cc21	2.3 (≈ 1.63 µg/mL)
CO[C@H]1/C=C/O[C@@]2(C)Oc3c(C)c(O)c4c(O)c(c(/C=N/N5CCN(C)CC5)c(O)c4c3C2=O)NC(=O)/C(C)=C\C=C\[C@H](C)[C@H](O)[C@@H](C)[C@@H](O)[C@@H](C)[C@H](OC(C)=O)[C@@H]1C [RIFAMPIN]	3.8 (≈ 3.13 µg/mL)
CN1C/C(=C\c2ccc(F)cc2)C(=O)[C@]2(C1)[C@H](c1ccc(F)cc1)[C@@H]1CSCN1[C@@]21C(=O)Nc2ccc(Cl)cc21	2.8 (≈ 1.62 µg/mL)
CC[C@@H](CO)NCCN[C@@H](CC)CO [ETHAMBUTOL]	61.2 (≈ 12.5 µg/mL)
NNC(=O)c1ccncc1 [ISONIAZID]	11.4 (≈ 1.56 µg/mL)
CN1C/C(=C\c2ccc(Cl)cc2Cl)C(=O)[C@]2(C1)[C@H](c1ccc(Cl)cc1Cl)[C@@H]1CSCN1[C@@]21C(=O)Nc2ccc(Cl)cc21	2.4 (≈ 1.63 µg/mL)
CN1C/C(=C\c2ccc(F)cc2)C(=O)[C@]2(C1)[C@H](c1ccc(F)cc1)[C@@H]1CSCN1[C@@]21C(=O)Nc2ccc([N+](=O)[O-])cc21	1.4 (≈ 0.824 µg/mL)
